Experiments:
[1] = system: TS-induced neutrophil influx in BALF; experiment: BALF neutrophilia induced by tobacco smoke exposure in mice; assay type: in vivo, C57BL6J female mice; conditions: 0.3 mg/kg i.n., 4 days TS exposure
Experimental: C57BL6J female mice aged 9–10 weeks (Harlan Laboratories S.r.l) in groups of 8 were exposed, via whole-body inhalation, twice daily 1 h apart, for 4 consecutive days, to the tobacco smoke (TS) (generated using “Marlboro Gold: 9 mg of tar and 0.7 mg nicotine”) of two cigarettes/exposure on days 1 and 2, three cigarettes/exposure on day 3, and four cigarettes/exposure on the last exposure day in clear polycarbonate chambers (27 cm × 16 cm × 12 cm). The smoke was introduced into the exposure chambers (21100-790 Ugo Basile, Biological Research Instruments, Comerio, Varese, Italy), with the airflow generated by using a mechanical ventilator (7025 Rodent Ventilator, Ugo Basile). Each exposure chamber was connected to a different ventilator set at a rate of 100 mL/min (frequency: 50 strokes/min; volume: 2 mL/stroke). At regular intervals (after burning two cigarettes), the exposure chambers were opened and aired. Sham and control mice were exposed to air only in the same manner for the same duration of time.
CHF6297 (0.03 and 0.3 mg/kg) and budesonide (0.3 mg/kg), our reference compound and vehicle (0.2% Tween 80 in saline), respectively, were administered intranasally in a volume of 30 µL, 1 h before and 5 h after TS exposure under light isoflurane anesthesia.
A BAL was performed using a volume of 0.6 mL of phosphate-buffered saline that was gently instilled and withdrawn three times using a 12-mL syringe. BALF cells were separated by centrifugation (10 min at 3,070 g), and the supernatant was removed. The resulting cell pellet was resuspended in a known volume of PBS, and the total cell numbers were calculated by counting a stained (Turk’s stain) aliquot under a microscope using a hemacytometer. The cell pellet was resuspended to approximately 10^5 cells per ml, and cytospin slides were prepared by centrifugation (8 min at 72.26 g; Shandon Cytospin; Thermo Shandon Ltd., Runcorn, Cheshire, United Kingdom). The slides were air-dried and stained using Wright–Giemsa stain, following the manufacturer’s instructions. A differential cell count was performed using light microscopy. Approximately 400 cells were counted from each slide. The cells were identified using standard morphometric techniques.

[2] = system: IAV-induced airway neutrophilia in HDM-challenged mice; experiment: Influenza virus A (H3N2)-induced exacerbation in HDM-sensitized mice; assay type: in vivo, Balb/c mice; conditions: 100 μg/kg twice daily for 3 days
rat PBMCs = experiment: TNF-α release in LPS-stimulated PBMCs; assay type: cell-based; conditions: PBMC, LPS 10 ng/mL, 18 h
Experimental: Peripheral blood mononuclear cells (PBMCs) were isolated from the blood of healthy human volunteers and Wistar rats (250–350 gr; Charles River, Calco, Italy) using a standard density gradient centrifugation technique. The citrated blood was placed onto Histopaque^TM and centrifuged. The PBMCs were then removed from the density gradient interface and washed in phosphate-buffered saline (PBS). The PBMCs were suspended in RPMI 1640 medium (without serum), aliquoted into a 96-well plate, and incubated at 37°C for 3 h in a humidified incubator. After incubation, the medium was replaced (with a medium containing 1% fetal bovine serum), and the plate was incubated at 37°C, for 1 h, in the presence of a test compound or the appropriate vehicle. LPS (10 ng/mL), or an appropriate vehicle control, was then added to the cells, and the plate was returned to the incubator for 18 h. Cell-free supernatants were removed and assayed for TNF-α levels using MSD plates on the SECTOR Imager 6000 (Meso Scale).

HBSMCs = experiment: CSE-evoked IL-8 release in human bronchial smooth muscle cells; assay type: cell-based
Experimental: Cigarette smoke extract (CSE) was generated as reported previously ([Moretto et al., 2012]). Briefly, aqueous CSE was obtained from the combustion of four cigarettes (Marlboro Red, 12 mg tar, 0.9 mg nicotine each) bubbled through 50 mL of the culture medium and subsequently filtered through a 0.2-μm-pore filter (Millipore, Billerica, MA). To ensure reproducibility among different CSE batches, the absorbance [optical density (OD)] measured at 320 nm was used as a measure of the “strength” of the extract. Dilutions were made with culture media to obtain the desired absorbance. The CSE was freshly prepared on the day of the experiment and immediately used after preparation. Human bronchial smooth muscle cells (HBSMCs) were seeded in DMEM with 10% FBS (50 U/mL penicillin, 0.05 mg/mL streptomycin, and 2 mM L-glutamine) in 48-well plates at a density of 10,000 cells/well, grown to ∼80%–90% confluence and incubated overnight in serum-free DMEM before treatments. All the treatments were performed in serum-free DMEM. The cells were pretreated for 30 min with either the vehicle or CHF6297 or losmapimod before stimulation with freshly prepared CSE, TNF-α, (1 ng/mL), or the vehicle for 18 h at 37°C. Human IL-8 was measured in the collected supernatants by use of a paired-antibody quantitative ELISA kit (BioSource International, Camarillo, CA).

[3] = system: i.v. LPS-induced TNF-α in blood; experiment: Intravenous LPS-induced TNF-α release in rat blood; assay type: in vivo, rats; conditions: oral gavage, i.v. LPS

Compound | neutrophils in BALF [1] | neutrophils in BAL fluid [2] | IC50 (rat PBMCs) [µM] | maximum inhibition of IL-8 (HBSMCs; CSE-evoked) [%] | IC50 (HBSMCs; Homo sapiens, 18 h) [µM] | effect on TNF-α levels in blood [3]
CCCC1O[C@@H]2C[C@H]3[C@@H]4CCC5=CC(=O)C=C[C@]5(C)[C@H]4[C@@H](O)C[C@]3(C)[C@]2(C(=O)CO)O1 (stereo partly drawn) [budesonide, reference compound] | 0.5 ± 0.1 × 10^5 cells/mL | 2.08 ± 0.23 × 10^5 cells/mL |  |  |  | 
Cc1c(F)cc(C(=O)NC2CC2)cc1-c1ccc(C(=O)NCC(C)(C)C)cn1 [losmapimod, reference compound] |  |  | 0.0119 | 100 | 0.00913 | marked reduction in TNF-α levels

From article PMC10973839, “CHF6297: a novel potent and selective p38 MAPK inhibitor with robust anti-inflammatory activity and suitable for inhaled pulmonary administration as dry powder” (Frontiers in Pharmacology, 2024)
